According to ChEMBL document CHEMBL2046372, “Design and synthesis of pyrrolo[3,2-d]pyrimidine human epidermal growth factor receptor 2 (HER2)/epidermal growth factor receptor (EGFR) dual inhibitors: exploration of novel back-pocket binders” (J Med Chem, 2012):
The source made the active and inactive calls. No cut-off for these calls is given here.

How the values were obtained:
[1] = target: T1, Receptor tyrosine-protein kinase erbB-2 (Homo sapiens, UniProt P04626); assay: Inhibition of N-terminus peptide-tagged human recombinant HER2 expressed using baculovirus infection system using [gamma-33P]-ATP preincubated with compound for 5 mins measured after 10 mins by scintillation counting
T1 sequence (P04626 whole entry): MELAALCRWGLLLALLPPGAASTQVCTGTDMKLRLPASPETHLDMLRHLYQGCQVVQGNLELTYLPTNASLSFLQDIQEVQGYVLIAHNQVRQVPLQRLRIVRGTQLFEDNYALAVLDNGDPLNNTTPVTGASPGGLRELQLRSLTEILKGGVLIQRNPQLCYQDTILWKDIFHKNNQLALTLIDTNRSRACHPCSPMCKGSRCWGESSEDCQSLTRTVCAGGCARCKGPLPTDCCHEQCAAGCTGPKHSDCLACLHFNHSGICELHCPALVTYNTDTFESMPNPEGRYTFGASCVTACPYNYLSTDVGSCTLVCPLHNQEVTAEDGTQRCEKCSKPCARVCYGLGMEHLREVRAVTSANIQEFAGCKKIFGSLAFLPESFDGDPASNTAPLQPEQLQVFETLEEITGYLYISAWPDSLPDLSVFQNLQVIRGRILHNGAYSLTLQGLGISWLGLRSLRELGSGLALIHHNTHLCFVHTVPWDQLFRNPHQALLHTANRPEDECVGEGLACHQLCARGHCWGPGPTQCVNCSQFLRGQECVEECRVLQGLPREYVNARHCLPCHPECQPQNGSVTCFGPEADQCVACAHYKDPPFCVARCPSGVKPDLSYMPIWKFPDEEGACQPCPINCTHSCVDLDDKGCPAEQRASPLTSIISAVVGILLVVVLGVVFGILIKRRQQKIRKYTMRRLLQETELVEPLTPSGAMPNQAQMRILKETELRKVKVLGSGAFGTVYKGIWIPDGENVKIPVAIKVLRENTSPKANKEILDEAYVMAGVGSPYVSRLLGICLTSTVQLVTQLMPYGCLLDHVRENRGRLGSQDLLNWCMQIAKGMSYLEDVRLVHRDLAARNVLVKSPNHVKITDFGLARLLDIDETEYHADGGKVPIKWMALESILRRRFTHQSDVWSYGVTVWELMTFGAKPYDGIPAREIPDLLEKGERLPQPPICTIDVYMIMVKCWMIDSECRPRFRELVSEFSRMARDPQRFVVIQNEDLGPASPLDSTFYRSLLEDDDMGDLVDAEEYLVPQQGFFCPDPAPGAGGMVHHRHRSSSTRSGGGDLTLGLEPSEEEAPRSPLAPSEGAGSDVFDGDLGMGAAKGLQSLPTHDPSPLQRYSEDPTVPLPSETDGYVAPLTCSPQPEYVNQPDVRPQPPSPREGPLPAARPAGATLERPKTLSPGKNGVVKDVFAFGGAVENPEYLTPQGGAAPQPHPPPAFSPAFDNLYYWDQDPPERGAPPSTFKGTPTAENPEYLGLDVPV

[2] = target: Epidermal growth factor receptor (Homo sapiens, UniProt P00533); assay: Inhibition of N-terminus peptide-tagged human recombinant EGFR expressed using baculovirus infection system using [gamma-33P]-ATP preincubated with compound for 5 mins measured after 10 mins by scintillation counting
Epidermal growth factor receptor, sequence (P00533 whole entry): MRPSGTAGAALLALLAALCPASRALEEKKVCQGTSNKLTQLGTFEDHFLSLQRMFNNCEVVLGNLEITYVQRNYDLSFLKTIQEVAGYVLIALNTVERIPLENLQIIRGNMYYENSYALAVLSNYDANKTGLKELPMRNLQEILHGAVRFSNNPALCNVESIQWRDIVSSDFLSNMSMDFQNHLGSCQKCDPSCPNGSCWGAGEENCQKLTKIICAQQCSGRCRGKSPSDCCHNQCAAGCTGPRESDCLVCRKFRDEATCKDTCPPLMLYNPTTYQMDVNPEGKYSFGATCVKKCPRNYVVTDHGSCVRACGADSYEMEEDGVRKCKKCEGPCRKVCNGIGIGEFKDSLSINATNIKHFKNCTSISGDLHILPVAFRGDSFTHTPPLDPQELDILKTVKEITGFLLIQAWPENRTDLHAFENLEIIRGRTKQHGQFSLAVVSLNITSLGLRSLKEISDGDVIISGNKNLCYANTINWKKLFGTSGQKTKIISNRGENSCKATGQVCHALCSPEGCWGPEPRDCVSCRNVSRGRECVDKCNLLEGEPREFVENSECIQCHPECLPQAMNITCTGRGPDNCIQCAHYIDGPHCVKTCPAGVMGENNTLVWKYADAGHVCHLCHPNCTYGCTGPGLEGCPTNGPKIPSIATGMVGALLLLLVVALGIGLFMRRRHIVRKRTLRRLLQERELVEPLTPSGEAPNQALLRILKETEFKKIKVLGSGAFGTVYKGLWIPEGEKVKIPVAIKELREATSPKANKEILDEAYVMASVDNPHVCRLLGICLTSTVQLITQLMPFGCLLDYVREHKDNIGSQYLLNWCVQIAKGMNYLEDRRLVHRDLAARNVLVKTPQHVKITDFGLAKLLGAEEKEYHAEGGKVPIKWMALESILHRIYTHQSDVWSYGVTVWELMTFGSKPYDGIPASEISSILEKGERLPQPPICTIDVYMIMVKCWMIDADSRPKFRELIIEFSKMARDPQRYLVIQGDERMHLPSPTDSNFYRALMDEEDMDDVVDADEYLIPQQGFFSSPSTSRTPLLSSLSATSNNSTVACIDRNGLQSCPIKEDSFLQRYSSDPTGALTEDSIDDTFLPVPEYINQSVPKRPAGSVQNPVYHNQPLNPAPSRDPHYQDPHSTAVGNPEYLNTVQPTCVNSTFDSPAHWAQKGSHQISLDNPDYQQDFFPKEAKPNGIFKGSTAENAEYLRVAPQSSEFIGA

[3] = target: T1, Receptor tyrosine-protein kinase erbB-2; assay: Pseudo-irreversible inhibition of N-terminus peptide-tagged human recombinant HER2 expressed using baculovirus infection system using [gamma-33P]-ATP preincubated with compound for 5 mins at 10 times IC50 concentration measured after 10 mins by scintillation counting
BT-474 = assay: Growth inhibition of human BT474 cells overexpressing HER2 gene after 5 days; assay type: functional; settings: BT-474, 120 h
[4] = Metabolic stability in mouse liver microsomes at 1 umol/L after 20 mins by HPLC analysis; assay type: ADME, Microsome; settings: read-out: Stability
[5] = Metabolic stability in human liver microsomes at 1 umol/L after 20 mins by HPLC analysis; assay type: ADME, Microsome; settings: read-out: Stability
CYP3A4 = CYP3A4 (Homo sapiens, UniProt P08684); assay: Inhibition of CYP3A4 at 10 uM after 15 mins; assay type: ADME
CYP3A4, sequence (P08684 whole entry): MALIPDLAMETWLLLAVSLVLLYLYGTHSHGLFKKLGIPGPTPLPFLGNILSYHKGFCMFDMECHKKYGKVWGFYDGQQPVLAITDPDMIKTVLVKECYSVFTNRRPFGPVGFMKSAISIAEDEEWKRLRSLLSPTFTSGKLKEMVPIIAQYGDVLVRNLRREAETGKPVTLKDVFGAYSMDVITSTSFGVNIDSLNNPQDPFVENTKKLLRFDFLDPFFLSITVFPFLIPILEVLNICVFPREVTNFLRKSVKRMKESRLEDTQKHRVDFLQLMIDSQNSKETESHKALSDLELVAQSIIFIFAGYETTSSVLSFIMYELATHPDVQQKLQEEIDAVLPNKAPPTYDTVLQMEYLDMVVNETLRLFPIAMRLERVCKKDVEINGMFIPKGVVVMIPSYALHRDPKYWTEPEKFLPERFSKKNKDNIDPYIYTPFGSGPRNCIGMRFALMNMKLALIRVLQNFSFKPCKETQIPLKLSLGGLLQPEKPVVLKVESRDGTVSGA

| SMILES | IC50 [1] | IC50 [2] | inhibition [3] | GI50 (BT-474) | microsomal CLint at 1 µM [4] | microsomal CLint at 1 µM [5] | inhibition at 0.25 h, 10 µM (CYP3A4) |
| --- | --- | --- | --- | --- | --- | --- | --- |
| O=C1NCc2cc(Oc3ccc(Nc4ncnc5ccn(CCO)c45)cc3Cl)ccc21 | 18 nM | 510 nM | inactive | 4080 nM |  |  |  |
| OCCn1ccc2ncnc(Nc3ccc(Oc4cccc5sccc45)c(Cl)c3)c21 | 6 nM | 8.8 nM | Active | 15 nM | 24 µL/min/mg | 144 µL/min/mg |  |
| O=C(NCCn1ccc2ncnc(Nc3ccc(Oc4cccc5sncc45)c(Cl)c3)c21)[C@@H]1CCCN1 | 0.92 nM | 3 nM |  | 5.8 nM | 74 µL/min/mg | 61 µL/min/mg | 35% |
| O=C1Cc2cccc(Oc3ccc(Nc4ncnc5ccn(CCO)c45)cc3Cl)c2N1 | 1.5 nM |  | Active | 73 nM |  |  |  |
| Cn1ncc2c(Oc3ccc(Nc4ncnc5ccn(CCO)c45)cc3Cl)cccc21 | 2.1 nM | 36 nM | inactive | 164 nM | 106 µL/min/mg | 219 µL/min/mg |  |
| O=C1Cc2c(cccc2Oc2ccc(Nc3ncnc4ccn(CCO)c34)cc2Cl)N1 | 1.6 nM | 3 nM | Active | 13 nM | 66 µL/min/mg | 141 µL/min/mg |  |
| OCCn1ccc2ncnc(Nc3ccc(Oc4cccc5[nH]ncc45)c(Cl)c3)c21 | 1.7 nM | 1.9 nM | Active | 5.5 nM | 123 µL/min/mg | 114 µL/min/mg |  |
| OCCn1ccc2ncnc(Nc3ccc(Oc4cccc5[nH]ccc45)c(Cl)c3)c21 | 2.5 nM | 3.1 nM | Active | 36 nM |  | 204 µL/min/mg |  |
| O=C1NCc2c(Oc3ccc(Nc4ncnc5ccn(CCO)c45)cc3Cl)cccc21 | 150 nM | 890 nM | inactive | 3360 nM |  |  |  |
| O=C1Cc2cc(Oc3ccc(Nc4ncnc5ccn(CCO)c45)cc3Cl)ccc2N1 | 28 nM | 960 nM | inactive | 1350 nM |  |  |  |
| OCCn1ccc2ncnc(Nc3ccc(Oc4cccc5sncc45)c(Cl)c3)c21 | 2.1 nM | 4.1 nM | Active | 3.6 nM | 142 µL/min/mg | 129 µL/min/mg | 47.2% |
| OCCn1ccc2ncnc(Nc3ccc(Oc4cccc(C(F)(F)F)c4)c(Cl)c3)c21 |  | 34 nM |  |  |  |  |  |
| CC(C)(C)C(=O)NCCn1ccc2ncnc(Nc3ccc(Oc4cccc5sncc45)c(Cl)c3)c21 | 6.1 nM | 21 nM |  | 9.2 nM | 108 µL/min/mg | 94 µL/min/mg | 33.5% |
| CC(=O)NCCn1ccc2ncnc(Nc3ccc(Oc4cccc5sncc45)c(Cl)c3)c21 | 1.6 nM | 2.9 nM |  | 4 nM | 100 µL/min/mg | 133 µL/min/mg | 57% |
| CC(C)(O)C(=O)NCCn1ccc2ncnc(Nc3ccc(Oc4cccc5sncc45)c(Cl)c3)c21 | 2.2 nM | 7 nM |  | 9.4 nM | 145 µL/min/mg | 117 µL/min/mg | 62.6% |
| O=C1NCc2cccc(Oc3ccc(Nc4ncnc5ccn(CCO)c45)cc3Cl)c21 | 2.5 nM | 21 nM | inactive | 768 nM |  |  |  |
| CC(C)(CO)C(=O)NCCn1ccc2ncnc(Nc3ccc(Oc4cccc5sncc45)c(Cl)c3)c21 | 3.3 nM | 7 nM |  | 8.6 nM | 88 µL/min/mg | 113 µL/min/mg |  |
| O=C1NCc2ccc(Oc3ccc(Nc4ncnc5ccn(CCO)c45)cc3Cl)cc21 | 1.3 nM | 7.8 nM | Active | 43 nM |  |  |  |
| O=C1Cc2ccc(Oc3ccc(Nc4ncnc5ccn(CCO)c45)cc3Cl)cc2N1 | 130 nM | 2300 nM | inactive | 1880 nM |  |  |  |
| CC(C)(C)NC(=O)c1cccc(Oc2ccc(Nc3ncnc4ccn(CCO)c34)cc2Cl)c1 | 2.3 nM | 33 nM |  | 88 nM |  |  |  |
| CC(C)(C(=O)NCCn1ccc2ncnc(Nc3ccc(Oc4cccc5sncc45)c(Cl)c3)c21)S(C)(=O)=O | 2 nM | 5.5 nM |  | 8 nM | 76 µL/min/mg | 113 µL/min/mg | 49.9% |
